Measurements reported in article PMC8132061, “An Insulin‐Inspired Supramolecular Hydrogel for Prevention of Type 1 Diabetes” (Advanced Science, 2021).
pKd: −log10 of the molar value. Non-standard residues stand in square brackets, D forms with d. Residues, ends and D or L forms follow the SMILES beside them. *: point of attachment. Acetyl(2-naphthyl) = O=C(Cc1ccc2ccccc2c1)*

Assays:
[1] = biological target: human insulin receptor protein (Homo sapiens, UniProt P06213); experiment: Microscale thermophoresis (MST) binding to insulin receptor; settings: Monolith NT.115, Recombinant Human Insulin R/CD220 (aa 28-944), 37 °C, read-out: dissociation constant (K D) to human insulin receptor protein
Description: 2‐Cl‐trityl chloride resin (1.1 mmol g^−1) was obtained from Nankai University resin Co., Ltd. Fmoc‐amino acids and o‐benzotriazol‐1‐yl‐N,N,N′,N′‐tetramethyluronium hexafluorophosphate (HBTU) were acquired from GL Biochem (Shanghai). Hydogels were prepared and respective endotoxin levels of formula were tested as previously reported.^[ ^23 , ^24 ^] Ins2_9‐23 peptide (SHLVEALYLVCGERGR; endotoxins <1 EU mg^−1) was supplied by Bankpeptide (Hefei, China). The BD Pharmingen FoxP3 staining kit was from (BD Biosciences, Beijing, China). Aluminum hydroxide was purchased from Sigma‐Aldrich (Shanghai, China). Antibodies used for flow cytometry analysis were purchased from eBioscience (CA, USA) and antibodies used for immunofluorescence staining were obtained from Abcam (Shanghai, China). Cytokine chip microarray was performed by Beijing Genomics Institute (Beijing, China). Recombinant Human Insulin R/CD220 (aa 28‐944) Protein was ordered from R&D Systems (Shanghai, China). Mouse Insulin EZRMI‐13 ELISA kit was from Millipore (Merck, UK). […]
All peptides in the study were synthesized by standard solid‐phase peptide synthesis (SPPS), and purified by high performance liquid chromatography (HPLC). […] CD spectrum were measured by a BioLogic (MOS‐450) system. […] The release behaviors of peptides was analyzed by liquid chromatograph (LC2020). […]

[2] = In vivo retention of Cy5.5-labeled hydrogel/formula (fluorescence imaging); settings: 50 µL subcutaneous inguinal, 8-weeks old female NOD mice, imaged every 6 h at 640 nm excitation
Description: 8‐weeks old female NOD mice were subcutaneously injected with a volume of 50 µL Cy5.5‐labeled peptide hydrogels/formulas in inguinal region. In vivo peptide retention was observed every 6 h at 640 nm excitation wavelength via Cri Maestro In‐vivo imaging System (Xenogen, IVIS Lumina II).

[3] = test system: OVA-induced immune responses; settings: ref 16a; cited from earlier work
Text: Poor tolerance induction was also observed from the Nap‐GFFY group (Figure 2A, red dotted line; 60% T1D onset). […] In the present study, when both isoforms of Nap‐GFFY were used, the lack of stability and adjuvant potency of L‐GFFY resulted both in reduced antigenic and adjuvant impact, rendering the Nap‐GFFY formulation less eff ... || Supramolecular peptide hydrogel has, in the past 5 years, been extensively investigated as immune adjuvant to improve efficacy of antigen presentation. By using peptide hydrogel, which functions both as antigen depot and immune adjuvant, it eliminates the likely protein‐induced hypersensitivity in vivo and the need for additional adjuvant^[ ^15 , ^37 ^] […] Because the peptide sequence GFFY is conserved in multiple self‐antigens of autoimmune diabetes, we now have assessed its poten ...

[4] = Gelation test and TEM of hydrogels/formulas; type: physicochemical; settings: after heating-cooling
Text: We first tested the gelation properties of Nap‐G^dF^dF^dY and controlled peptides (Nap‐GFFY, Nap‐^dF^dF, Nap‐G^dF^dA^dY, and Ac‐G^dF^dF^dY). […] The nanostructures of these hydrogels and solutions were subsequently observed by transmission electron microscopy (TEM). […] The diameter of its nanofiber was about 12 nm. […] Insulin mimicking requires a specific conformation of the self‐assembled peptide Nap‐G^dF^dF^dY for in vivo performance, indicating a secondary structure examination is required. We obtained the circular dichroism (CD) spectrum of peptide within the hydrogel at 37 °C.
(§1) All peptides in the study were synthesized by standard solid‐phase peptide synthesis (SPPS), and purified by high performance liquid chromatography (HPLC). Hydrogels/formulas were prepared by heating–cooling method. Negative staining technique was used to observe the nanostructures of materials by using TEM (HITACHI HT7700 Exalens). CD spectrum were measured by a BioLogic (MOS‐450) system. Rheology test was carried out on an AR 2000ex system (TA instrument). The release behaviors of peptides was analyzed by liquid chromatograph (LC2020). Microscale thermophoresis and analysis of binding force was performed by using the Monolith NT.115 system (NanoTemper Technologies, Germany). All samples were tested at the temperature of 37 °C.

[5] = Peptide release from hydrogel/solution; type: physicochemical; settings: within 12 h, 37 °C, LC (LC2020)
Description: as §1

T1D onset in NOD mice = experiment: T1D prevention study, incidence of T1D onset; type: in vivo, female NOD mice; settings: 1 mg mL^-1, 50-70 µL s.c. once a week for 5 weeks from 3 weeks of age
Description: Female NOD mice were inoculated with different hydrogel formulations 3 weeks of age. PBS and aluminum hydroxide+Ins2_9‐23 (Alum+Ins2_9‐23) were used as negative and positive controls, respectively. Random blood glucose (RBG) levels were measured weekly and mice with RBG levels above 11.1 mmol L^−1 for more than 3 consecutive weeks were considered “diabetic” in the present study.

pancreatic islets = experiment: Immunofluorescence of pancreatic islets (morphology, immune cell infiltration), prevention study; type: in vivo, NOD mice
Description: Female NOD mice (3 weeks of age) were immunized subcutaneously under the front left leg with Nap‐G^dF^dF^dY, Nap‐GFFY, Nap‐G^dF^dA^dY, Nap‐^dF^dF, Ac‐G^dF^dF^dY (1 mg mL^−1, 50–70 µL), and Alum+Ins2_9‐23 (50 µg) and endotoxin‐free PBS once a week for 5 consecutive weeks (from 3‐weeks old to 7‐weeks old) and maintained in specific pathogen free facilities for up to 36 or 52 weeks (n = 3–10 per group). Random plasma glucose level and body weight of all mice were noted weekly from week 8 till the end of experiment with an OneTouch Ultra blood glucose meter (Lifescan Inc., Milpitas, CA, USA). Mice were classified as diabetic if random plasma glucose level exceeded 11.1 mmol L^−1 for 3 consecutive weeks. IPGTT was performed in all treatment groups at week 14, week 20, and week 36. Serum samples were obtained from all mice at the age of week 14, week 20, and week 36 for cytokine chip microarray, which was performed by the Beijing Genomics Institute. Serum insulin level was determined in 10 µL serum samples of each animal using a mouse insulin ELISA kit according to the manufacture's instruction.
Immunofluorescence staining was performed following procedures that were previously detailed.^[ ^18b,c ^] Pancreas were extracted and paraffin‐embedded before being sectioned (5 µm width) onto microscopic slides. For immunofluorescence staining, antigen retrieval was performed followed by exposure to primary antibodies at 4 ℃ overnight. The pancreas sections were then washed with PBS and staining with secondary antibody for 1–2 h at room temperature and examined under a fluorescence microscope (Olympus BX3‐25ND25, Japan).

[6] = test system: bone marrow derived dendritic cells (BMDCs); parameters: method as in PMID 31244959; settings: ref 16b; cited from earlier work

| Compound | pKd [1] | in vivo retention time (fluorescence signal) [2] | in vivo stability vs L-isoform Nap-GFFY [3] | gelation property [4] | peptide released from gel [5] | T1D onset (T1D onset in NOD mice) | islet immune cell infiltration (pancreatic islets; immunofluorescence, prevention study) | immune cell infiltration per islet over Nap-G^dF^dF^dY (pancreatic islets; over Nap-G^dF^dF^dY, p < 0.01) | average % of immune cell infiltration per islet (pancreatic islets; per islet, mean ± s.e.m., n = 5-20) | CD40/CD80 expression on BMDCs [6] | TNF-α in cell culture supernatant of BMDCs [6] |
| --- | --- | --- | --- | --- | --- | --- | --- | --- | --- | --- | --- |
| O=C(Cc1ccc2ccccc2c1)NCC(=O)N[C@H](Cc1ccccc1)C(=O)N[C@H](Cc1ccccc1)C(=O)N[C@H](Cc1ccc(O)cc1)C(=O)O [Nap‐G^dF^dF^dY] ({Acetyl(2-naphthyl)}-G[dF][dF][dY]-OH) | 4.27 | about 36 h | preferentially more stable in vivo |  |  |  |  |  |  |  |  |
| Nap‐GFFY |  | about 30 h |  | could swiftly form transparent hydrogels | about 40% | 60% | substantial immune cell infiltration | 248 ± 25 % over Nap-GdFdFdY | 38.5 ± 3.8 % per islet | significant increase expression of CD40/CD80 | elevated |
| O=C(Cc1ccc2ccccc2c1)N[C@H](Cc1ccccc1)C(=O)N[C@H](Cc1ccccc1)C(=O)O [Nap‐^dF^dF] |  | about 30 h |  |  |  |  |  |  |  |  |  |
